Reference: patent US8828908B2, “Herbicidally active bicyclic 1,3-dione compounds” (Syngenta Limited, priority 2007, dated 2014)

Columns and labels:
Assay type in all cases: in vivo
[1] = tested on: Lolium perenne (LOLPE); test: Example B post-emergence herbicidal greenhouse test; conditions: 360 h, evaluated after 15 days, 100=total damage to plant, 0=no damage
Experimental: (§1) Seeds of a variety of test species were sown in standard soil in pots. After cultivation for one day (pre-emergence) or after 10 days cultivation (post-emergence) under controlled conditions in a glasshouse, the plants were sprayed with an aqueous spray solution derived from the formulation of the technical active ingredient in 0.6 ml acetone and 45 ml formulation solution containing 10.6% Emulsogen EL (Registry number 61791-12-6), 42.2% N-methylpyrrolidone, 42.2% dipropylene glycol monomethyl ether (Registry number 34590-94-8) and 0.2% X-77 (Registry number 11097-66-8). The test plants were then grown in a greenhouse under optimum conditions until, 15 days later for post-emergence and 20 days for pre-emergence, the test was evaluated (100=total damage to plant; 0=no damage to plant).
(§2) Alopecurus myosuroides (ALOMY), Avena fatua (AVEFA), Lolium perenne (LOLPE), Setaria faberi (SETFA), Digitaria sanguinalis (DIGSA), Echinochloa crus-galli (ECHCG)

[2] = tested on: Avena fatua (AVEFA); test: as above; conditions: 360 h, evaluated after 15 days, 100=total damage to plant, 0=no damage
Experimental: as §1, §2

[3] = tested on: Digitaria sanguinalis (DIGSA); test: as above; conditions: 360 h, evaluated after 15 days, 100=total damage to plant, 0=no damage
Experimental: as §1, §2

[4] = tested on: Alopecurus myosuroides (ALOMY); test: as above; conditions: 360 h, evaluated after 15 days, 100=total damage to plant, 0=no damage
Experimental: as §1, §2

[5] = tested on: Setaria faberi (SETFA); test: as above; conditions: 360 h, evaluated after 15 days, 100=total damage to plant, 0=no damage
Experimental: as §1, §2

[6] = tested on: Echinochloa crus-galli (ECHCG); test: as above; conditions: 360 h, evaluated after 15 days, 100=total damage to plant, 0=no damage
Experimental: as §1, §2

[7] = tested on: Lolium perenne (LOLPE); test: Example B pre-emergence herbicidal greenhouse test; conditions: 480 h, evaluated after 20 days, 100=total damage to plant, 0=no damage
Experimental: as §1, §2

[8] = tested on: Avena fatua (AVEFA); test: Example B pre-emergence herbicidal greenhouse test; conditions: 480 h, evaluated after 20 days, 100=total damage to plant, 0=no damage
Experimental: as §1, §2

[9] = tested on: Digitaria sanguinalis (DIGSA); test: Example B pre-emergence herbicidal greenhouse test; conditions: 480 h, evaluated after 20 days, 100=total damage to plant, 0=no damage
Experimental: as §1, §2

[10] = tested on: Alopecurus myosuroides (ALOMY); test: Example B pre-emergence herbicidal greenhouse test; conditions: 480 h, evaluated after 20 days, 100=total damage to plant, 0=no damage
Experimental: as §1, §2

[11] = tested on: Setaria faberi (SETFA); test: Example B pre-emergence herbicidal greenhouse test; conditions: 480 h, evaluated after 20 days, 100=total damage to plant, 0=no damage
Experimental: as §1, §2

[12] = tested on: Echinochloa crus-galli (ECHCG); test: Example B pre-emergence herbicidal greenhouse test; conditions: 480 h, evaluated after 20 days, 100=total damage to plant, 0=no damage
Experimental: as §1, §2

Structure (SMILES) | pest or weed control at 125 g/ha [1] [%] | pest or weed control at 125 g/ha [2] [%] | pest or weed control at 125 g/ha [3] [%] | pest or weed control at 125 g/ha [4] [%] | pest or weed control at 125 g/ha [5] [%] | pest or weed control at 125 g/ha [6] [%] | pest or weed control at 250 g/ha [7] [%] | pest or weed control at 250 g/ha [8] [%] | pest or weed control at 250 g/ha [9] [%] | pest or weed control at 250 g/ha [10] [%] | pest or weed control at 250 g/ha [11] [%] | pest or weed control at 250 g/ha [12] [%]
Cc1ccc(-c2ccc(Cl)cc2F)cc1C1=C(O)[C@H]2CC[C@H](C2)C1=O (single isomer, unassigned) [Compound T27] | 30 | 70 | 70 | 30 | 90 | 80 | 70 | 50 | 80 | 60 | 100 | 80
Cc1ccc(-c2cc(Cl)cc(Cl)c2)cc1C1=C(O)[C@H]2CC[C@H](C2)C1=O (single isomer, unassigned) [Compound T28] | 0 | 10 | 0 | 20 | 10 | 0 | 20 | 10 | 0 | 0 | 0 | 0
Cc1ccc(-c2ccc(F)c(Cl)c2)cc1C1=C(O)[C@H]2CC[C@H](C2)C1=O (single isomer, unassigned) [Compound T29] | 0 | 0 | 10 | 30 | 60 | 50 | 20 | 0 | 0 | 10 | 70 | 20
COc1ccc(Cl)cc1-c1ccc(C)c(C2=C(O)[C@H]3CC[C@H](C3)C2=O)c1 (single isomer, unassigned) [Compound T30] | 10 | 10 | 0 | 10 | 0 | 0 | 0 | 0 | 0 | 0 | 0 | 0
Cc1ccc(-c2ccc(Cl)c(F)c2)cc1C1=C(O)[C@H]2CC[C@H](C2)C1=O (single isomer, unassigned) [Compound T31] | 20 | 0 | 70 | 30 | 80 | 70 | 30 | 40 | 70 | 70 | 100 | 80
CC(=O)OC1=C(c2c(C)cc(-c3ccccc3)cc2C)C(=O)[C@@H]2CC[C@H]1C2 [Compound P1] | 20 | 0 | 60 | 20 | 70 | 60 | 60 | 30 | 70 | 30 | 70 | 100
Cc1cc(-c2ccccc2)cc(C)c1C1=C(OC(=O)C(C)(C)C)C2CCC(C2)C1=O (stereo not drawn) [Compound P2, 3-(3,5-dimethylbiphen-4-yl)-4-oxo-bicyclo[3.2.1]oct-2-en-2-yl 2,2-dimethylpropionate] | 10 | 0 | 40 | 30 | 40 | 60 | 30 | 40 | 70 | 30 | 70 | 50
CCc1ccc(-c2ccc(F)cc2)cc1C1=C(O)[C@H]2CC[C@H](C2)C1=O [Compound T3] | 0 | 30 | 80 | 50 | 90 | 90 | 70 | 60 | 80 | 50 | 100 | 100
